Like-named read-outs stand apart in the source and are kept apart here.
Columns and labels:
E5-positive AT-84-E7 = assay: Cell surface expression of MHC I (flow cytometry); format: cell-based
4T1 tumor cells = assay: 4T1 tumor model in mice; format: in vivo, mouse; settings: 10 mg/kg IP once daily, 7 injections starting on day 6
T cells = assay: Proliferation of T cells; format: cell-based
[1] = tested on: B16-OVA cells cocultured with B3Z cells; assay: B3Z activation assay; format: cell-based; settings: 100 μM, 24 hours before B3Z co-culture
Method: B16-OVA cells are seeded into a 96-well plate and treated with 100 μM […], […] or racemic rimantadine for 24 hours, prior to addition of B3Z cells. After 24 hours of co-culture, medium is removed and 100 μl of lysis buffer [0.155 mM chlorophenol red β-D-galactopyranoside (CPRG) (Roche), 0.125% Nonidet P-40 Alternative (EMDCalbiochem), and 9 mM MgCl2 (Sigma) in PBS] are added. After incubation for 4 hours at 37° C., the absorbance at 570 nm is determined on a TECAN infinite M200 microplate reader.

AT-84-E7 tumors = format: in vivo, mouse; settings: tumors which do not express E5
M2 channel pore = M2 channel pore (Influenza A virus, UniProt P06821); settings: one study; other studies found no difference; cited from earlier work
[2] = tested on: cell lines engineered to express HPV16 E5; assay: Cell cycle arrest in cell lines engineered to express HPV16 E5; format: cell-based, murine and human
Method: (§1) Cell cycle progression was analyzed on the basis of BrdU incorporation following […] cell staining with BrdU-APC and 7-AAD using BD Pharmingen BrdU Flow Kit. (BD, Franklin Lakes, NJ) according to the manufacture's protocol. Cells are analyzed using flow cytometry. Cell proliferation is assessed by using MTT [3-(4,5-dimethylthiazol-2-yl)-2,5-diphenyltetrazolium bromide]. First, cells are seeded in 96-well plate and cultured for 2-3 days. Next, culture media is replaced with fresh media containing 0.5 mg/ml of MTT (Sigma) and the plates are incubated for 4 hours at 37° C. Then, purple formazan crystals are dissolved in lysis buffer (4 mM HCl and 0.1% NP-40 in isopropanol) and the absorbance is recorded on a TECAN infiniteM200 microplate reader (Tecan, Mannedorf, Switzerland) at a wavelength of 570 nm with absorbance at 650 nm as reference.

Stathmin = assay: RTqPCR gene expression of cell cycle proteins; format: cell-based
Method: (§2) Total RNA is extracted using TRIzol Reagent (Invitrogen) and reverse transcribed with qScript cDNA Synthesis Kit (Quanta BioSciences, Beverly, MA) according to the manufacturer's instructions. Quantitative PCR analysis is conducted by using KAPA SYBR […] FAST (KAPA Biosystems, Wilmington, MA) on the 7900HT Fast Real-Time PCR System (Applied Biosystems, Foster City, CA).

Tau = assay: RTqPCR gene expression of cell cycle proteins; format: cell-based
Method: as §2

[3] = tested on: glutamate, GABA, dopamine receptors
Source text: Next, a series of SPECT analyses as described in Schramm, N., et al. (2000).
The SPECT analyses comprise of treatment of the mice with radioligands specific to each receptor. For example, [^123I] IBZM has been documented to have a high affinity for the D2/3 dopamine receptor.

B16-OVA tumor cells = assay: B16-OVA tumor model in mice; format: in vivo, mouse; settings: for tumor sizes compared to control groups: 10 mg/kg IP once daily, 7 injections starting on day 10; for survival: with anti-PDL1 immunotherapy, mice harboring B16-OVA tumors
[4] = tested on: CAL-27, CAL-33, and SCC-47 squamous cell carcinoma cell lines; assay: Proliferation assays in human head and neck tumor lines; format: cell-based; settings: rimantadine alone; CAL-27, CAL-33, SCC-47
Method: as §1

[5] = tested on: CAL-27, CAL-33, and SCC-47 squamous cell carcinoma cell lines; assay: BrdU incorporation assays in human head and neck tumor lines; format: cell-based; settings: rimantadine alone; CAL-27, CAL-33, SCC-47
Method: as §1

D2/3 dopamine receptor = settings: documented; cited from earlier work
[6] = molecular target: NR1/NR2B ionotropic receptor (Homo sapiens, UniProt Q05586+Q13224); assay: ScreenPatch assay (IonWorks Barracuda electrophysiology) on NR1/NR2B; settings: refers to Table 2
CAL-27 cells = assay: Example 6 proliferation in vitro (MTT); format: cell-based, human; settings: 0-500 μM, 24 or 48 hours
Method: On day 1, CAL-27 cells were seeded in a 96-well plate (2-4×10^3 cells/well, medium 100 μl/well) and left overnight to allow the cells to attach to the plate. On day 2, varying concentrations of rimantadine (0 μM, 100 μM, 250 μM, or 500 μM) were added to the cells and allowed to incubate for 24 hours or 48 hours. On either day 3 or 4, the culture media was aspirated, and 100 μl/well of MTT solution (comprising an MTT concentration of 0.5 mg/ml; formed by dilution of thiazolyl blue tetrazolium bromide solution (SIGMA, Cat #M2128) with stock solution (5 mg/ml in PBS (−20° C.)) was added to the culture media. The cells were incubated in a CO2 incubator at 37° C. for 3 hours, and the MTT solution was aspirated. 100 μl/well of DMSO was then added and the cells were incubated for about 5 minutes. A OD570 nm (Ref 650 nm) was then read. Results of the experiment are shown in FIG. 2.

NMDA receptors = assay: ScreenPatch two-application protocol, agonist and antagonist format; format: cell-based, human; settings: first application; data not shown
Method: A two-application protocol was employed.
Agonist Format: The potential agonist effect of the test articles and the positive control antagonist, amantadine, were examined during first application.
To access open channel block type of inhibition, peak and steady state current amplitudes (between 4th and 5th seconds after agonist application) were measured (PCA and SSC respectively).

Sequence of M2 channel pore (P06821 whole entry): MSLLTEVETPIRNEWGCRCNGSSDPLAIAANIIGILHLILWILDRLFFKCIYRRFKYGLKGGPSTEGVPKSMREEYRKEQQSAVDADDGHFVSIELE
Sequence of NR1/NR2B ionotropic receptor (Q13224 27-1484, other chains not shown): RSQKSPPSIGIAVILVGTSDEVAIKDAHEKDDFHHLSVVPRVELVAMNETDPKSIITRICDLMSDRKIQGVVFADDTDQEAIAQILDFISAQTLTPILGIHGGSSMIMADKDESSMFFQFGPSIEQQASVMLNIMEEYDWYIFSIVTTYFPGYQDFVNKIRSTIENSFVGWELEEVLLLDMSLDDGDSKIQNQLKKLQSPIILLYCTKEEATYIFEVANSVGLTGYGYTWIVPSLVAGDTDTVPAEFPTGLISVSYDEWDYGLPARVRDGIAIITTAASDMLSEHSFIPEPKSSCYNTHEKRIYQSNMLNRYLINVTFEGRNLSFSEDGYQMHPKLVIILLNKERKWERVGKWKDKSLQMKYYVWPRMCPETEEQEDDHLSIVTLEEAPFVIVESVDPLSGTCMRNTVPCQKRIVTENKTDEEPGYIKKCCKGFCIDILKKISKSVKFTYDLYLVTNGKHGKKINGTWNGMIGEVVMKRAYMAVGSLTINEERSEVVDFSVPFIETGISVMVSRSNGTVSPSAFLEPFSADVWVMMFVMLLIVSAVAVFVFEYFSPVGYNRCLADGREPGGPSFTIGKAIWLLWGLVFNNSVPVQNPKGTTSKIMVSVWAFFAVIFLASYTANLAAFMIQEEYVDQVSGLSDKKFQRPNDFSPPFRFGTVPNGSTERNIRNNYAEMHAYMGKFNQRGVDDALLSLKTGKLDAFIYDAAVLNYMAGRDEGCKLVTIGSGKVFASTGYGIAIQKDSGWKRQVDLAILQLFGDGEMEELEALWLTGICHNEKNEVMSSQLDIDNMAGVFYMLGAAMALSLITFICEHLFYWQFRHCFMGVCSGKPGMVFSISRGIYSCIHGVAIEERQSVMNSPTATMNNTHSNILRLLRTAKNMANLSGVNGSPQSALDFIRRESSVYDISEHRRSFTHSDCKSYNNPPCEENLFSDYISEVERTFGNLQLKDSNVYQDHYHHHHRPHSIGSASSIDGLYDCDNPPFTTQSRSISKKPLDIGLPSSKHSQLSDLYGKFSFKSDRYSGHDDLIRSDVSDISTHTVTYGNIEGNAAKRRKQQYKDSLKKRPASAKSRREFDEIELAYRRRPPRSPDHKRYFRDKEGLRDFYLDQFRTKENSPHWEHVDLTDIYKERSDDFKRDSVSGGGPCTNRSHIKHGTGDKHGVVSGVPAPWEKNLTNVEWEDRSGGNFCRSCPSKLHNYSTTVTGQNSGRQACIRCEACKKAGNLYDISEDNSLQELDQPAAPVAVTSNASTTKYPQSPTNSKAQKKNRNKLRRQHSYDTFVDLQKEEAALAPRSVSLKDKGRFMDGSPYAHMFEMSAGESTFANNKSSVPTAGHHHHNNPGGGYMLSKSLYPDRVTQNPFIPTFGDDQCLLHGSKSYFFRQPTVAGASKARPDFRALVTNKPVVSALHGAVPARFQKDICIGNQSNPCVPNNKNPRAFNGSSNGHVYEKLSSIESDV

C[C@@H](N)C12CC3CC(CC(C3)C1)C2 [2-R rimantadine]
cell surface expression of MHC I (E5-positive AT-84-E7): restored | tumor sizes compared to control groups (4T1 tumor cells): statistically significant decreases | proliferation of T cells (T cells): no significant effects | increase in recognition of model tumor antigen by B3Z cells [1]: 3 fold | anti-tumor effect (AT-84-E7 tumors): decreased | affinity for M2 channel pore compared with the S-enantiomer (M2 channel pore): greater affinity | cell cycle arrest [2]: induce cell cycle arrest | gene expression of Stathmin (Stathmin): significant decreases | gene expression of Tau (Tau): Decreases | incidence of central nervous system adverse effects, compared with the other enantiomer ([3]; Example 4): higher incidence | tumor sizes compared to control groups (B16-OVA tumor cells): statistically significant decreases | survival (B16-OVA tumor cells): significant improvement

CC(N)C12CC3CC(CC(C3)C1)C2 (stereo not shown) [rimantadine]
proliferation [4]: decreased | cell cycle arrest [5]: Significant cell cycle arrest

CCN1CCC[C@H]1CNC(=O)c1c(OC)ccc([123I])c1O [[^123I] IBZM]
affinity for the D2/3 dopamine receptor (D2/3 dopamine receptor): high affinity

C[C@H](N)C12CC3CC(CC(C3)C1)C2 [2-S rimantadine]
cell surface expression of MHC I (E5-positive AT-84-E7): restored | inhibition of NR2B subunits as compared to 2-R rimantadine and racemic rimantadine [6]: to a lesser degree | tumor sizes compared to control groups (4T1 tumor cells): statistically significant decreases | proliferation of T cells (T cells): no significant effects | increase in recognition of model tumor antigen by B3Z cells [1]: 3 fold | anti-tumor effect (AT-84-E7 tumors): decreased | cell cycle arrest [2]: induce cell cycle arrest | gene expression of Stathmin (Stathmin): significant decreases | gene expression of Tau (Tau): Decreases | cancer cell proliferation as compared to R-rimantadine or racemic rimantadine (CAL-27 cells): enhanced or equivalent | toxicity as a treatment for cancer as compared to 2-R rimantadine ([3]; Example 4): significantly less toxic | incidence of central nervous system adverse effects, compared with the other enantiomer ([3]; Example 5): higher incidence | toxicity as a treatment for cancer as compared to 2-R rimantadine ([3]; Example 5): significantly less toxic | tumor sizes compared to control groups (B16-OVA tumor cells): statistically significant decreases | survival (B16-OVA tumor cells): significant improvement

NC12CC3CC(CC(C3)C1)C2 [Amantadine, amantadine]
agonist effect: activation of NMDA receptors (NMDA receptors): Neither test articles nor amantadine had produced significant activation

From patent US20240226036A1 (Toragen, Inc., priority 2021, published 2024)
